According to US20140323306A1, “Substituted 1,2,5-Oxadiazole Compounds and Their Use as Herbicides” (BASF SE, priority 2011, published 2014):

Tested on: CHEAL
Experiment: Greenhouse herbicidal test, post-emergence treatment
Type: in vivo, Chenopodium album
Details: post-emergence method, application rate 0.25 kg/ha; scale from 0 to 100
Excerpt: The seeds of the test plants were shown separately for each species. For the post-emergence treatment, the test plants were first grown to a height of 3 to 15 cm, depending on the plant habit, and only then treated with the active ingredients which had been suspended or emulsified in water. For this purpose, the test plants were either shown directly and grown in the same containers, or they were first grown separately as seedlings and transplanted into the test containers a few days prior to treatment. Depending on the species, the plants were kept at 10-25° C. or 20-35° C. The test period extended over 2 to 4 weeks. During this time, the plants were tended, and their response to the individual treatments was evaluated. Evaluation was carried out using a scale from 0 to 100. 100 means no emergence of the plants, or complete destruction of at least the aerial moieties, and 0 means no damage, or normal course of growth. A good herbicidal activity is given at values of at least 70 and a very good herbicidal activity is given at values of at least 85. The plants used in the greenhouse experiments belonged to the following species: [table]

Q: How did the “herbicidal activity against CHEAL” value turn out when `Cc1nonc1NC(=O)c1c(Cl)cc(Cl)cc1Cl` [I′.A-2, 2,4,6-trichloro-N-(4-methyl-1,2,5-oxadiazol-3-yl)benzamide] was run?
A: very good (a very good herbicidal activity is given at values of at least 85)
